Tests used:
rat PTH1R = molecular target: T1, rat PTH1R (Rattus norvegicus, UniProt P25961); assay: In vitro cAMP signaling activity via the rat PTH1R (LLC-PK46_RATO_PTH1R cells); type: cell-based; conditions: LLC-PK46_RATO_PTH1R cells overexpressing rat PTH1R
T1 construct: expressed in transfected cells
T1 sequence (P25961 27-591): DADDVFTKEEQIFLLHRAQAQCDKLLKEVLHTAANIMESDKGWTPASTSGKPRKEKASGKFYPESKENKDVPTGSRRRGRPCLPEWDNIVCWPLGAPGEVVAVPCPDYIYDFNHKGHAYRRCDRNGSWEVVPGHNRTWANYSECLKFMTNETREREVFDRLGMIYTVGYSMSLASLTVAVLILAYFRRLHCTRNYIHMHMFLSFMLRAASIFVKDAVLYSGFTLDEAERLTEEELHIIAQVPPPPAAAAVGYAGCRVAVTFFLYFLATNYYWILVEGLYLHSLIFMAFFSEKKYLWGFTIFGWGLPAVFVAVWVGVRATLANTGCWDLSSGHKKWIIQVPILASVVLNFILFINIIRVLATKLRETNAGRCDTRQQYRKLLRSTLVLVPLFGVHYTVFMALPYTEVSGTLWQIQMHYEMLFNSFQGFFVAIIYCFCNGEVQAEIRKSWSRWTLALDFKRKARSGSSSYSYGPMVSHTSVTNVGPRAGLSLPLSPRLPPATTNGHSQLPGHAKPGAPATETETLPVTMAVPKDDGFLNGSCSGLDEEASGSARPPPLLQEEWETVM
Source text: Instead of HKRK-B7 cells, LLC-PK46_RATO_PTH1R cells overexpressing rat PTH1R, which were established at Chugai Pharmaceutical, were used to take measurements in a similar manner to Reference Test Example 1.

ovariectomized rats = assay: Bone mineral density after six weeks of repeated administration to ovariectomized rats; type: in vivo, rat; conditions: once a day for six weeks, Compound 7 30 mg/kg oral
Procedure: Female Crl:CD(SD) rats obtained from Charles River Japan, Inc. were acclimated for one week or longer under standard laboratory conditions of 20° C. to 26° C. and 35% to 75% humidity, and then used in experiments. The rats had free access to tap water and a standard rodent diet (CE-2) (Clea Japan Inc.) containing 1.1% calcium, 1.0% phosphoric acid, and 250 IU/100 g vitamin D3.
Twelve-week old rats were subjected to removal of both ovaries by surgery (OVX) or to sham surgery (Sham). After the body weight was determined in the fourth week after surgery, the rats were divided into groups so that the average body weight of each group of six rats would be even. From the subsequent day after group division, each rat was subjected to repeated administration once a day for six weeks. The solvent for oral administration (vehicle) and the solvent for subcutaneous administration (PC buffer) were respectively administered orally and subcutaneously to rats of the Sham-Control group. Vehicle and PC buffer were orally and subcutaneously administered to rats of the OVX-Control group, respectively. To rats of OVX-Compound 7, the above-mentioned Compound 7 dissolved in the vehicle was orally administered at a dose of 30 mg/kg, and PC buffer was administered subcutaneously. To rats of the OVX-hPTH(1-34) group, the vehicle was orally administered, and hPTH(1-34) dissolved in PC buffer was subcutaneously administered at a dose of 0.9 nmol/kg.
The level of AUC (area under the curve for blood concentration vs. time) was the same as when 20 μg of Forteo®, a therapeutic agent clinically used for osteoporosis, is administered to humans when the administration dose for rats was set to 0.9 nmol/kg. The administration doses were 5 mL/kg for oral administration and 1 mL/kg for subcutaneous administration in all groups. The vehicle used was a composition prepared from 10% dimethyl sulfoxide (Wako Pure Chemical Industries, Ltd.), 10% Kolliphor EL (Sigma-Aldrich Japan), and 10% hydroxypropyl-β-cyclodextrin (Nihon Shokuhin Kako Co., Ltd), whose pH was adjusted to 10 using glycine (Wako Pure Chemical Industries, Ltd.) and sodium hydroxide (Wako Pure Chemical Industries, Ltd.). The PC buffer used was a composition prepared from 25 mmol/L phosphate-citrate buffer, 100 mmol/L NaCl, and 0.05% Tween80, adjusted to pH 5.0. […] The bone mineral densities of the lumbar spine and femur were determined using a dual X-ray bone mineral scanner (DCS-600EX, Aloka). The lumbar spine bone mineral density was determined by measuring the second to fourth lumbar vertebrae; and the femur bone mineral density was determined by vertically dividing the femur into ten parts, and measuring the three parts at the distal end of the knees. […]

TPTX rat = assay: Calcemic action in the TPTX rat model; type: in vivo; conditions: TPTX rats, 30 mg/kg oral
Procedure: Four-week old female Crl:CD(SD) rats were obtained from Charles River Japan (Atsugi Breeding Center), and were acclimated to standard laboratory conditions of 20-26° C. and 35-75% humidity for one week. The rats were given tap water and were fed ad libitum with standard rodent chow (CE-2) (CLEA Japan, Inc.) containing 1.1% calcium, 1.0% phosphoric acid, and 250 IU/100 g of vitamin D3.
TPTX was performed on five-week old rats. Some of the individuals were subjected to sham operation (Sham). Individuals whose serum Ca concentration was less than 8 mg/dL on four days after the operation were selected for use as TPTX rats. On five days after the operation, the rats were assigned to eight TPTX groups and one Sham group (n=5, each group) based on their body weight and serum Ca concentration measured on four days after the operation. The solvent alone was orally administered to the Sham group and the TPTX-Vehicle group at a volume of 10 mL/kg. Each test article was orally administered individually to each TPTX test article group by dissolving it in a solvent at a dose of 30 mg/10 mL/kg. The solvent composition was 10% dimethylsulfoxide (Wako Pure Chemical Industries, Ltd.), 10% Cremophor EL (Sigma-Aldrich Japan LLC), 20% hydroxypropyl-β-cyclodextrin (Nihon Shokuhin Kako Co., Ltd.), glycine (Wako Pure Chemical Industries, Ltd.); and the pH was adjusted to 10. Immediately before administration of each sample, Pre-blood collection was performed, and blood collection was carried out at 2, 6, 10, and 24 hours after administration to measure the serum Ca concentration. Each blood collection was carried out from the jugular vein under isoflurane inhalation anesthesia.
Serum Ca measurement: Serum obtained by centrifugation from the collected blood was measured by using an automatic analyzer TBA-120FR (Toshiba Medical Systems Corporation).
For statistical analysis of the animal studies, data are shown as mean±standard error (SE). Statistical analysis were performed by unpaired test of the SAS Preclinical Package (Ver. 5.00.010720, SAS Institute Japan, Tokyo, Japan).

## Cc1cc(N2C(=O)NC(=O)C2(C)C)cc(C)c1CCS(=O)(=O)N1CCC2(CC1)N=C(c1ccc(OC(F)(F)F)cc1)NC2=O [Compound 7, 1-(3,5-dimethyl-4-(2-((4-oxo-2-(4-(trifluoromethoxy)phenyl)-1,3,8-triazaspiro[4.5]deca-1-en-8-yl)sulfonyl)ethyl)phenyl)-5,5-dimethylimidazolidine-2,4-dione]
Rat PTH1R
  EC20: 0.5 µM
Ovariectomized rats
  lumbar spine bone mineral density with respect to the OVX-Control group (in words): increasing trend
Ovariectomized rats; hPTH(1-34) 0.9 nmol/kg subcutaneous
  percentage of increase in femur bone mineral density with respect to the OVX-Control group: 12%
TPTX rat
  achievement of the therapeutic target range of serum Ca concentration of 7.6 to 8.8 mg/dL: achieved the therapeutic target range
TPTX rat; up to 24 hours after administration
  change of serum Ca concentration from the Pre-value (in words): large positive changes from the Pre-value

— patent US9993462B2, “Hydantoin derivative-containing pharmaceutical composition” (Chugai Seiyaku Kabushiki Kaisha, priority 2014, dated 2018)
